Measured values published in PubChem BioAssay AID256 (DTP/NCI, 2004).
Values joined by “and” are separate entries in the source; they are usually repeats but may differ in a detail not shown here. Equal values may be shown once. Toxic doses and inconclusive results are not listed. How the source made its calls: active means survival T/C of 150% or more; inactive means T/C below 125% in these data.

System: CD2F1 mice, L1210 leukemia ip, survival T/C
Test: NCI In Vivo Anticancer Drug Screen. Data for tumor model L1210 Leukemia (intraperitoneal) in CD2F1 (CDF1) mice
Settings: endpoint: mean survival time, higher = longer survival
Method in brief: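 Vehicle-treated tumor-bearing mice served as controls (C) for compound-treated mice (T). Reported figure is T divided by C.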

[1] = dose: 100.0 mg/kg/injection, schedule: Q01DX001 (ip), vehicle: saline with Tween-80
[2] = dose: 200.0 mg/kg/injection, schedule: Q01DX001 (ip), vehicle: saline with Tween-80
[3] = dose: 100.0 mg/kg/injection, schedule: Q04DX003 (ip), vehicle: saline
[4] = dose: 200.0 mg/kg/injection, schedule: Q04DX003 (ip), vehicle: saline
[5] = dose: 100.0 mg/kg/injection, schedule: Q04DX003 (ip), vehicle: saline with Tween-80
[6] = dose: 200.0 mg/kg/injection, schedule: Q04DX003 (ip), vehicle: saline with Tween-80
[7] = dose: 400.0 mg/kg/injection, schedule: Q04DX003 (ip), vehicle: saline with Tween-80
[8] = dose: 100.0 mg/kg/injection, schedule: Q01DX009 (ip), vehicle: saline with Tween-80
[9] = dose: 50.0 mg/kg/injection, schedule: Q04DX002 (ip), vehicle: saline with Tween-80
[10] = dose: 400.0 mg/kg/injection, schedule: Q01DX001 (ip), vehicle: saline with Tween-80
[11] = dose: 200.0 mg/kg/injection, schedule: Q01DX009 (ip), vehicle: saline with Tween-80
[12] = dose: 400.0 mg/kg/injection, schedule: Q01DX009 (ip), vehicle: saline with Tween-80

Measured: T/C

C#CC(C)(C)OC(O)C(Cl)(Cl)Cl (stereo unspecified)
inactive: dose: 100.0 mg/kg/injection, schedule: Q04DX002 (ip), vehicle: saline with Tween-80 91 % of control | dose: 200.0 mg/kg/injection, schedule: Q04DX002 (ip), vehicle: saline with Tween-80 91 % of control | dose: 400.0 mg/kg/injection, schedule: Q04DX002 (ip), vehicle: saline with Tween-80 106 % of control

CN(C)c1ccc(/C=N/Nc2ncnc(Cl)c2N)cc1
inactive: dose: 100.0 mg/kg/injection, schedule: Q01DX001 (ip), vehicle: carboxymethylcellulose (CMC) 98 % of control | dose: 200.0 mg/kg/injection, schedule: Q01DX001 (ip), vehicle: carboxymethylcellulose (CMC) 91 % of control | dose: 400.0 mg/kg/injection, schedule: Q01DX001 (ip), vehicle: carboxymethylcellulose (CMC) 95 % of control

NC1=NC(c2ccccc2)N(c2ccc(Cl)cc2)C(N)=N1 (stereo unspecified)
inactive: [1] 93 % of control | [2] 95 % of control

CC(=O)OCC1OC(OC(C)=O)C(NC(=O)C[NH-])C(OC(C)=O)C1OC(C)=O.CC(=O)OCC1OC(OC(C)=O)C(NC(=O)C[NH-])C(OC(C)=O)C1OC(C)=O.[Cl][Pt+2][Cl] (stereo unspecified)
inactive: dose: 12.5 mg/kg/injection, schedule: Q04DX003 (ip), vehicle: saline 96 % of control | dose: 25.0 mg/kg/injection, schedule: Q04DX003 (ip), vehicle: saline 98 % of control | dose: 50.0 mg/kg/injection, schedule: Q04DX003 (ip), vehicle: saline 98 % of control | [3] 106 % of control | [4] 98 % of control

COC1N(C2CC(O)C(CO)O2)C(=O)NC(=O)C1(F)Br (stereo unspecified)
inactive: dose: 1.56 mg/kg/injection, schedule: Q01DX009 (ip), vehicle: saline 97 % of control and 108 % of control | dose: 3.12 mg/kg/injection, schedule: Q01DX009 (ip), vehicle: saline 115 % of control and 117 % of control | dose: 6.25 mg/kg/injection, schedule: Q01DX009 (ip), vehicle: saline 112 % of control | dose: 12.5 mg/kg/injection, schedule: Q01DX009 (ip), vehicle: saline 109 % of control | [3] 110 % of control | [4] 122 % of control

O=C([O][Sb]([O]C(=O)C(Br)Br)([c]1ccccc1)([c]1ccccc1)[c]1ccccc1)C(Br)Br
inactive: [5] 95 % of control | [6] 89 % of control | [7] 95 % of control

NCc1cccc([N+](=O)[O-])c1
inactive: [3] 106 % of control | [4] 109 % of control | dose: 400.0 mg/kg/injection, schedule: Q04DX003 (ip), vehicle: saline 98 % of control

N#CC1(Cc2ccc(OCc3ccccc3)c(OCc3ccccc3)c2)c2ccccc2C=CN1C(=O)c1ccccc1 (stereo unspecified)
inactive: dose: 25.0 mg/kg/injection, schedule: Q01DX009 (ip), vehicle: saline with Tween-80 103 % of control | dose: 50.0 mg/kg/injection, schedule: Q01DX009 (ip), vehicle: saline with Tween-80 100 % of control | [8] 91 % of control

CC1(C)CCSC(/C=C/c2ccccc2)=N1
inactive: dose: 100.0 mg/kg/injection, schedule: Q01DX009 (ip), vehicle: other 101 % of control | dose: 200.0 mg/kg/injection, schedule: Q01DX009 (ip), vehicle: other 117 % of control | dose: 400.0 mg/kg/injection, schedule: Q01DX009 (ip), vehicle: other 109 % of control

c1ccc2c(c1)cc1cnc3cccc4ccc2c1c43
inactive: dose: 12.5 mg/kg/injection, schedule: Q04DX002 (ip), vehicle: saline with Tween-80 96 % of control | dose: 25.0 mg/kg/injection, schedule: Q04DX002 (ip), vehicle: saline with Tween-80 101 % of control | [9] 90 % of control

CN(C(=O)CCC(=O)N(C)c1ccccc1)c1ccccc1
inactive: [1] 103 % of control | [2] 92 % of control | [10] 92 % of control

CCCCCCC[CH2][Sn]1([CH2]CCCCCCC)[O]OC(c2ccccc2)[O]1 (stereo unspecified)
inactive: [9] 92 % of control

O=C1CCCC1CC1CCCC1=O (stereo unspecified)
inactive: [8] 102 % of control | [11] 106 % of control | [12] 106 % of control

CC1(C)CC23C4COC(=O)C2CCC1C3CC4=O (stereo unspecified)
inactive: dose: 3.12 mg/kg/injection, schedule: Q01DX009 (ip), vehicle: DMSO 95 % of control | dose: 6.25 mg/kg/injection, schedule: Q01DX009 (ip), vehicle: DMSO 96 % of control and 98 % of control | dose: 12.5 mg/kg/injection, schedule: Q01DX009 (ip), vehicle: DMSO 90 % of control and 94 % of control | dose: 25.0 mg/kg/injection, schedule: Q01DX009 (ip), vehicle: DMSO 94 % of control and 98 % of control | dose: 50.0 mg/kg/injection, schedule: Q01DX009 (ip), vehicle: DMSO 104 % of control | dose: 100.0 mg/kg/injection, schedule: Q01DX009 (ip), vehicle: DMSO 93 % of control | dose: 200.0 mg/kg/injection, schedule: Q01DX009 (ip), vehicle: DMSO 112 % of control

O=C1C[C@H]2[C@H](CO)[C@@H](OC(=O)c3ccc(-c4ccccc4)cc3)C[C@H]2O1
inactive: dose: 100.0 mg/kg/injection, schedule: Q01DX001 (ip), vehicle: alcohol 94 % of control | dose: 200.0 mg/kg/injection, schedule: Q01DX001 (ip), vehicle: alcohol 88 % of control | dose: 400.0 mg/kg/injection, schedule: Q01DX001 (ip), vehicle: alcohol 92 % of control

COc1ccc2c(Cc3ccc(O)cc3)cncc2c1O
inactive: dose: 75.0 mg/kg/injection, schedule: Q01DX001 (ip), vehicle: saline 100 % of control | dose: 150.0 mg/kg/injection, schedule: Q01DX001 (ip), vehicle: saline 106 % of control | dose: 300.0 mg/kg/injection, schedule: Q01DX001 (ip), vehicle: saline 98 % of control

Cc1c(C(=O)O)nc(CC(O)C(Cl)(Cl)Cl)[nH]c1=O (stereo unspecified)
inactive: dose: 25.0 mg/kg/injection, schedule: Q01DX005 (ip), vehicle: other 106 % of control | dose: 50.0 mg/kg/injection, schedule: Q01DX005 (ip), vehicle: other 101 % of control | dose: 100.0 mg/kg/injection, schedule: Q01DX005 (ip), vehicle: other 101 % of control | dose: 200.0 mg/kg/injection, schedule: Q01DX005 (ip), vehicle: other 103 % of control | dose: 400.0 mg/kg/injection, schedule: Q01DX005 (ip), vehicle: other 95 % of control

COc1cc2c(cc1OC)C1CCN3C(=O)CCC3N1CC2 (stereo unspecified)
inactive: [5] 102 % of control | [6] 102 % of control | [7] 108 % of control

CC(O)C(O)C(O)C(/C=N\N=C(/N)[S-])=N/N=C(\N)[S-].[Pt+2] (stereo unspecified)
inactive: [1] 111 % of control | [8] 91 % of control | [5] 88 % of control | [2] 104 % of control | [11] 94 % of control | [6] 96 % of control | [10] 106 % of control | [12] 89 % of control | [7] 89 % of control
